Data published in US20250171776A1, “NON-CANONICAL CELL-PENETRATING PEPTIDES FOR ANTISENSE OLIGOMER DELIVERY” (priority 2023, published 2025).
Read-outs that look alike come from different tables or passages of the source. Where no end group is shown, it is not given here. [ ]: non-standard residue; d: D form. 2Nal = N[C@@H](Cc1ccc2ccccc2c1)C(=O)O; Cit = NC(=O)NCCC[C@H](N)C(=O)O; Api = NC1(C(=O)O)CCNCC1; Dab = NCC[C@H](N)C(=O)O; Iph = iodophenylalanine

What was measured:
HeLa 654 cells [1] = experiment: HeLa 654 eGFP assay (flow cytometry, mean eGFP fluorescence, 22 h); format: cell-based; conditions: for PMO delivery: eGFP fluorescence relative to PMO alone: 20 μM, HeLa 654 cells, flow cytometry; for PMO delivery at varying concentrations (mean eGFP fluorescence relative to vehicle): 1, 2.5, 5, 10, 25 or 50 μM; for PMO response (mean eGFP fluorescence relative to vehicle): 2.5 μM, segment-CXP1 conjugates
Experimental: Purified constructs were then tested using an activity-based readout in which nuclear delivery results in fluorescence. Briefly, HeLa cells stably transfected with an Enhanced Green Fluorescent Protein (eGFP) gene interrupted by a mutated intron of β-globin (IVS2-654) produce a non-fluorescent eGFP protein. As used herein, Hela-654 cells refers to the Hela cells transfected with an Enhanced Green Fluorescent Protein (eGFP) gene interrupted by a mutated intron of β-globin (IVS2-654) and Hela-654 eGFP Assay is used to refer to an Assay that uses the Hela-654 cells. Successful delivery of PMO IVS2-654 to the nucleus results in corrective splicing and eGFP synthesis.
The amount of PMO delivered to the nucleus is therefore correlated with eGFP fluorescence, quantified by flow cytometry. Activity was reported as mean fluorescence intensity (MFI) relative to PMO alone. This activity assay provides indirect information on how much active PMO is delivered to the nucleus. Relative efficiency of a PMO-CPP conjugate was characterized by comparing activity to internal concentration.
[…] 18 h prior to treatment, the cells were plated at a density of 5,000 cells per well in a 96-well plate in DMEM supplemented with 10% FBS and 1% penicillin-streptomycin.
For individual peptide testing, PPMOs were dissolved in phosphate buffered saline (PBS) without Ca^2+ or Mg^2+ at a concentration of 1 mM (determined by UV absorbance of the PMO) before being diluted in Dulbecco's modified eagle medium (DMEM). Cells were incubated at the designated concentrations in triplicate for 22 h at 37° C. and 5% CO2. Next, the treatment media was removed, and the cells were washed once before being incubated with 0.25% Trypsin-EDTA for 15 min at 37° C. and 5% CO2. Lifted cells were transferred to a V-bottom 96-well plate and washed once with PBS, before being resuspended in PBS containing 2% FBS and 2 μg/mL propidium iodide (PI). Flow cytometry analysis was carried out on a BD LSRII flow cytometer. Gates were applied to the data to ensure that cells that were positive for propidium iodide or had forward/side scatter readings that were sufficiently different from the main cell population were excluded. Each sample was capped at 5,000 gated events.
Analysis was conducted using Graphpad Prism 7 and FlowJo. For each sample, the mean fluorescence intensity (MFI) and the number of gated cells were measured. To report activity, triplicate MFI values were averaged and normalized to the PMO alone condition.

HELA-654 cells = experiment: Hela-654 eGFP assay (incucyte imaging, GFP positive cells, 72 h); format: cell-based; conditions: for EC50: 72 h
Experimental: HELA-654 cells were imaged at 72 hours with an incucyte and the number of GFP positive cells versus total cell counts were calculated with the incucyte image analysis software. Statistical analysis was conducted using a one-way analysis of variance (ANOVA) test with Dunnett's multiple comparison test. Bars represent mean±standard deviation (SD), with P<0.05 was considered to indicate statistical significance, (**** p<0.0001, *** […], ** p<0.01, * p<0.05).
HELA-654 cells were imaged at 72 hours with an incucyte and the number of GFP positive cells versus total cell counts were calculated with the incucyte image analysis software.

HeLa 654 cells [2] = experiment: Lactate dehydrogenase (LDH) release assay in HeLa 654 cells; format: cell-based; conditions: 25 μM
Experimental: The media from the cells was analyzed for LDH release with an LDH assay and the percentage of LDH release was calculated relative to fully lysed cells.
Cytotoxicity assays were performed in HeLa 654 cells or TH-1 renal cells. TH-1 cells were maintained in DMEM supplemented with 10% (v/v) fetal bovine serum (FBS) and 1% (v/v) penicillin-streptomycin at 37° C. and 5% CO2H-1. Cells were plated at 5,000 cells/well in a 96-well plate 18-hours prior to treatment and treated with PMO-peptide compounds as described above. HeLa cell LDH assays were performed concurrently on the cells treated for Flow cytometry, so all plating and treatment protocols match those described above.
17 hours after cell treatment, the Promega CytoTox lysis solution was added to 3 wells of each plate as a fully lysed control (100% LDH-release). 18 hours after treatment, cell supernatant was transferred to a new 96-well plate for analysis of LDH release. To each well of the 96-well plate containing supernatant was added CytoTox 96 Reagent (Promega). […] Equal volume of Stop Solution was added to each well, mixed, and the absorbance of each well was measured at 490 nm. The measurement of vehicle-treated cells was subtracted from each measurement, and % LDH release was calculated as % cytotoxicity=100×Experimental LDH Release (OD490)/Maximum LDH Release (OD490).

eGFP-654 mice = experiment: eGFP-654 mouse study: GFP fluorescence in tissue homogenates; format: in vivo; conditions: 20 mg/kg intravenous, tissues collected weekly for 8 weeks
Experimental: The tissues from a series of organs were homogenized and GFP fluorescence was measured with a spectrophotometer and normalized to tissue quantity (FIG. 9-17). Median effective dose (ED50) was also derived from the dose-response curve. PMO-CXP1 compound exposure was calculated with an enzyme-linked oligonucleotide hybridization assay (ELOHA). Briefly, the ELOHA assay is a two-step hybridization assay where the analyte is bound to both an immobilized capture probe and biotinylated detection probe. Streptavidin-AP-conjugate is added to the mixture and AttoPhos substrate is added to the system and incubated for 10 minutes. Stop solution is added and the plate is read on the spectrophotometer. The compound concentrations were determined from a standard curve. […] Compound efficacy and exposure were calculated in the quadriceps (FIGS. 9-10), heart (FIGS. 11-12), diaphragm (FIGS. 13-14), and kidney (FIGS. 15-16). The compound was also found to have efficacy for up to 56 days in vivo (FIG. 17).
PPMOs at 3 mg/kg were intravenously delivered to eGFP-654 mice. […] The tissues were homogenized and GFP fluorescence measurements were read for a fluorescence spectrophotometer and normalized to tissue quantity to measure efficacy (FIGS. 26-29). Compound efficacy and exposure were calculated in the quadriceps (FIG. 26), heart (FIG. 27), diaphragm (FIG. 28), and kidney (FIG. 29).

[3] = chimeric peptide PMO conjugates, read-out: EC50 (at 72 h)
[4] = CXP1 analogs (unnatural amino acids replaced), read-out: EC50 (72 h)

## Asn-Phe-Lys-Gln-Nap-His-Ala-Gly-Dab-Arg-Lys-Trp-Lys-Lys (NFKQ[2Nal]HAG[Dab]RKWKK; also: PMO conjugate) [PMO-CXP2]
HeLa 654 cells [1]
  PMO delivery: eGFP fluorescence relative to PMO alone: high levels of PMO delivery
HeLa 654 cells [1]; 22 h
  PMO delivery at varying concentrations (mean eGFP fluorescence relative to vehicle): dose-dependent delivery of PMO
HELA-654 cells; read-out: EC50 (at 72 h)
  EC50: 11.5 µM

## Cit-Met-Phe-Gly-Pip-Dab-Dab-Lys-Ala-Pro-Lys-Trp-Lys-Lys ([Cit]MFG[Api][Dab][Dab]KAPKWKK; also: PMO conjugate) [PMO-CXP4]
HeLa 654 cells [1]
  PMO delivery: eGFP fluorescence relative to PMO alone: high levels of PMO delivery
HeLa 654 cells [1]; 22 h
  PMO delivery at varying concentrations (mean eGFP fluorescence relative to vehicle): dose-dependent delivery of PMO
HELA-654 cells; read-out: EC50 (at 72 h)
  EC50: 4.57 µM

## Iph-Gly-Arg-Gly-Pip-Lys-Gln-Lys-Thr-Ser-Iph-Gly-Arg-Gly-Pip-Lys-Trp-Lys-Lys ([Iph]GRG[Api]KQKTS[Iph]GRG[Api]KWKK; also: PMO conjugate) [SA-CXP1]
HeLa 654 cells [1]; 22 h
  PMO response (mean eGFP fluorescence relative to vehicle): highest PMO response compared to the other segment-CXP1 sequences
HELA-654 cells; [3]
  EC50: 1.57 µM
HeLa 654 cells [2]
  Toxicity: LDH release: toxicity closest to the parent CXP1-CXP1 peptide

## Lys-Gln-Lys-Thr-Ser-Iph-Gly-Arg-Gly-Pip-Lys-Trp-Lys-Lys (KQKTS[Iph]GRG[Api]KWKK-NH2; also: PMO conjugated via DBCO linker) [PMO-CXP1]
HeLa 654 cells [1]
  PMO delivery: eGFP fluorescence relative to PMO alone: high levels of PMO delivery
HeLa 654 cells [1]; 22 h
  PMO delivery at varying concentrations (mean eGFP fluorescence relative to vehicle): dose-dependent delivery of PMO
HELA-654 cells; read-out: EC50 (at 72 h)
  EC50: 7.08 µM
eGFP-654 mice
  Duration of efficacy in vivo: up to 56 days

## Lys-Gln-Lys-Thr-Ser-Iph-Gly-Arg-Gly-Pip-Lys-Trp-Lys-Lys-Gly-Lys-Gln-Lys-Thr-Ser-Iph-Gly-Arg-Gly-Pip-Lys-Trp-Lys-Lys (KQKTS[Iph]GRG[Api]KWKKGKQKTS[Iph]GRG[Api]KWKK; not fully specified (C-terminus); printed as Lys-Gln-Lys-Thr-Ser-Iph-Gly-Arg-Gly-Pip-Lys-Trp-Lys-Lys-Gly-Lys-Gln-Lys-Thr-Ser-Iph-Gly-Arg-Gly-Pip-Lys-Trp-Lys-Lys; also: PMO IVS2-654 conjugate) [PMO-CXP1-CXP1]
HELA-654 cells; [3]
  EC50: 1.07 µM

## Lys-Gln-Lys-Thr-Ser-Iph-Gly-Iph-Gly-Pip-Lys-Trp-Lys-Lys (KQKTS[Iph]G[Iph]G[Api]KWKK; not fully specified (C-terminus); printed as Lys-Gln-Lys-Thr-Ser-Iph-Gly-Iph-Gly-Pip-Lys-Trp-Lys-Lys; also: PMO conjugate) [PMO-CXP1S]
HELA-654 cells; Iph scan, 30 μM of compound, 72 hours
  Percentage of GFP Positive Cells at 72 hours (30 μM): 82.3%

## Lys-Gln-Lys-Thr-Ser-Iph-Gly-Lys-Gly-Pip-Lys-Trp-Lys-Lys (KQKTS[Iph]GKG[Api]KWKK; not fully specified (C-terminus); printed as Lys-Gln-Lys-Thr-Ser-Iph-Gly-Lys-Gly-Pip-Lys-Trp-Lys-Lys; also: PMO conjugate) [PMO-CXP1AA]
HELA-654 cells; [4]
  EC50: 13.1 µM

## Lys-Gln-Lys-Thr-Ser-Lys-Gln-Lys-Thr-Ser-Iph-Gly-Arg-Gly-Pip-Lys-Trp-Lys-Lys (KQKTSKQKTS[Iph]GRG[Api]KWKK; not fully specified (C-terminus); printed as Lys-Gln-Lys-Thr-Ser-Lys-Gln-Lys-Thr-Ser-Iph-Gly-Arg-Gly-Pip-Lys-Trp-Lys-Lys; also: PMO conjugate) [SC-CXP1]
HELA-654 cells; [3]
  EC50: 4.01 µM

## Lys-Gln-Lys-Thr-Ser-Phe-Gly-Arg-Gly-Lys-Lys-Trp-Lys-Lys (KQKTSFGRGKKWKK; also: PMO conjugate) [PMO-CXP1Z]
HELA-654 cells; [4]
  EC50: 21.1 µM

## Lys-Gln-Lys-Thr-Ser-Phe-Gly-Arg-Gly-Pip-Lys-Trp-Lys-Lys (KQKTSFGRG[Api]KWKK; not fully specified (C-terminus); printed as Lys-Gln-Lys-Thr-Ser-Phe-Gly-Arg-Gly-Pip-Lys-Trp-Lys-Lys; also: PMO conjugate) [PMO-CXP1X]
HELA-654 cells; [4]
  EC50: 17.4 µM

## Lys-Thr-Ser-Iph-Gly-Arg-Lys-Gln-Lys-Thr-Ser-Iph-Gly-Arg-Gly-Pip-Lys-Trp-Lys-Lys (KTS[Iph]GRKQKTS[Iph]GRG[Api]KWKK; not fully specified (C-terminus); printed as Lys-Thr-Ser-Iph-Gly-Arg-Lys-Gln-Lys-Thr-Ser-Iph-Gly-Arg-Gly-Pip-Lys-Trp-Lys-Lys; also: PMO conjugate) [SB-CXP1]
HeLa 654 cells [1]; 22 h
  PMO response (mean eGFP fluorescence relative to vehicle): highest PMO response compared to the other segment-CXP1 sequences
HELA-654 cells; [3]
  EC50: 2.08 µM

## Lys-Thr-Ser-Iph-Gly-Arg-Lys-Gln-Lys-Thr-Ser-Iph-Gly-Arg-Lys-Trp-Lys-Lys (KTS[Iph]GRKQKTS[Iph]GRKWKK; not fully specified (N-terminus, C-terminus); printed as Lys-Thr-Ser-Iph-Gly-Arg-Lys-Gln-Lys-Thr-Ser-Iph-Gly-Arg-Lys-Trp-Lys-Lys; also: PMO IVS2-654 conjugate) [CXD1A]
HeLa 654 cells [1]; 1 μM, 22 h
  PMO delivery (mean eGFP fluorescence relative to vehicle): high PMO delivery
HELA-654 cells; [3]
  EC50: 3.35 µM

## Lys-Trp-Lys-Lys-Gln-Lys-Thr-Ser-Iph-Gly-Arg-Gly-Pip-Lys-Trp-Lys-Lys (KWKKQKTS[Iph]GRG[Api]KWKK; not fully specified (N-terminus, C-terminus); printed as Lys-Trp-Lys-Lys-Gln-Lys-Thr-Ser-Iph-Gly-Arg-Gly-Pip-Lys-Trp-Lys-Lys; also: PMO conjugate) [SD-CXP1]
HELA-654 cells; [3]
  EC50: 2.28 µM

## [Dab]VARNN[Dab]TKGKWKK [PMO-CXP3]
HeLa 654 cells [1]
  PMO delivery: eGFP fluorescence relative to PMO alone: high levels of PMO delivery
HeLa 654 cells [1]; 22 h
  PMO delivery at varying concentrations (mean eGFP fluorescence relative to vehicle): dose-dependent delivery of PMO
HELA-654 cells; read-out: EC50 (at 72 h)
  EC50: 13.8 µM
